Results: the NIST ThermoML archive (doi:10.1016/j.jct.2017.03.022)
Numbers after ± are expanded uncertainties.

Key:
[1] = xn = mol fraction of the nth substance listed; conditions: 101 kPa, Liquid; for speed of sound: Frequency=3 MHz, Single path-length method; for mass density: Vibrating tube method
[2] = 101 kPa, Liquid, Vibrating tube method

In the case of `CC(O)CO` (stereo not given) [1,2-propanediol] + O=C1CCCN1, the speed of sound ([1]; 303.15 K, x2 = 0) is reported as 1496.6 ± 1.3 m/s, the mass density ([1]; 303.15 K, x2 = 0) is reported as 1028.94 ± 1 kg/m3 and the speed of sound ([1]; 308.15 K, x2 = 0) is reported as 1482.6 ± 1.3 m/s. For the same molecule, the mass density ([1]; 308.15 K, x2 = 0) was 1025.2 ± 1 kg/m3, the speed of sound ([1]; 313.15 K, x2 = 0) was 1468.5 ± 1.3 m/s and the mass density ([1]; 313.15 K, x2 = 0) was 1021.43 ± 1 kg/m3. For the same molecule, the speed of sound ([1]; 318.15 K, x2 = 0) was 1454.3 ± 1.3 m/s, the mass density ([1]; 318.15 K, x2 = 0) was 1017.63 ± 1 kg/m3 and the speed of sound ([1]; 323.15 K, x2 = 0) was 1440.1 ± 1.3 m/s. For the same molecule, the mass density ([1]; 323.15 K, x2 = 0) was 1013.79 ± 1 kg/m3.

In the case of `O=C1CCCN1` [2-pyrrolidinone] + OCCCO, the speed of sound ([1]; 303.15 K, x1 = 1) is reported as 1617.7 ± 1.2 m/s, the mass density ([1]; 303.15 K, x1 = 1) is reported as 1103.07 ± 1 kg/m3 and the speed of sound ([1]; 308.15 K, x1 = 1) is reported as 1601.3 ± 1.2 m/s. For the same molecule, the mass density ([1]; 308.15 K, x1 = 1) was 1098.99 ± 1 kg/m3, the speed of sound ([1]; 313.15 K, x1 = 1) was 1585.4 ± 1.2 m/s and the mass density ([1]; 313.15 K, x1 = 1) was 1094.9 ± 1 kg/m3. For the same molecule, the speed of sound ([1]; 318.15 K, x1 = 1) was 1570.4 ± 1.2 m/s, the mass density ([1]; 318.15 K, x1 = 1) was 1090.82 ± 1 kg/m3 and the speed of sound ([1]; 323.15 K, x1 = 1) was 1553.5 ± 1.2 m/s. It also gave a mass density ([1]; 323.15 K, x1 = 1) of 1086.75 ± 1 kg/m3.

With `OCCCO` [propan-1,3-diol] the mass density ([2]; 303.15 K) was 1046.56 ± 1 kg/m3, the mass density ([2]; 308.15 K) was 1043.43 ± 1 kg/m3 and the mass density ([2]; 313.15 K) was 1040.28 ± 1 kg/m3. For the same molecule, the mass density ([2]; 318.15 K) was 1037.11 ± 1 kg/m3 and the mass density ([2]; 323.15 K) was 1033.92 ± 1 kg/m3.
